Like-named read-outs stand apart in the source and are kept apart here.
What was measured:
[1] = target: wild type MLL1 five-member complex (MLL1-5C) (Homo sapiens, UniProt Q03164); experiment: MLL1 Flashplate Assay; assay type: biochemical; details: read-out: MLL1 flash plate
Method: MLL1 Flashplate Assay To assess the compound potency in MLL1 Flashplate assay, compounds were serially diluted 3-fold in DMSO to obtain a total of twelve concentrations. Then the test compounds at each concentration (250 nL of each) were transferred by Mosquito into Corning #3675 384-well plate. Solutions (15 μL) of 4.2 nM wild type MLL1 five-member complex (MLL1-5C) in the assay buffer (20 mM Tris-HCl, pH 8.0, 0.01% Tween 20, 1 mM DTT, 0.01% BSA) were added to the wells. A 10 μL solution of 2.5 μM of the peptide substrate H3K4me0 (histone H3[1-21]-Biotin) and 1.25 μM ^3H-SAM in the reaction buffer was then added to initiate each reaction. The final components in the reaction solution include 2.5 nM MLL1-5C, 0.5 μM ^3H-SAM, and 1 μM H3K4me0 with varying concentration of the compounds. A positive control consisted of 2.5 nM MLL1-5C, 0.5 μM ^3H-SAM, and 1 μM substrate in the absence of the test compound, and a negative control consisted of 0.5 μM ^3H-SAM, and 1 μM substrate only. Each reaction was incubated at rt for 90 min, then stopped by addition of 5 μL per of quench solution (0.5 mM SAM in assay buffer). 25 μL of each reaction solution was transferred to FlashPlate streptavidin 384-well microplate (PerkinElmer). After at least 1 h incubation at rt, the wells were washed three times with 0.1% Tween-20 in dH2O using the BioTek plate washer. The plates were then read in MicroBeta (PerkinElmer). The radioactive readouts were then normalized based on the values coming from the positive and negative controls to give percent enzyme activities. The data were then fit to a dose response equation using the program Helios to get the IC50 values of the test compounds.

[2] = target: wild type MLL1 four-member complex (MLL1-4C) (Homo sapiens, UniProt Q03164); experiment: MLL1 LC-MS Assay; assay type: biochemical
Outline: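 Compound pre-incubated 20 min with MLL1-4C and SAM, then H3[1-21]-biotin (H3K4me0) substrate added; final 30 nM enzyme, 2.5 μM SAM, 10 μM peptide in Tris pH 8.0 with MgCl2, DTT, Tween 20, BSA. After 120 min at rt, TFA-quenched SAH quantified by LC-MS/MS with d4-SAH; IC50 from dose-response fit.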

H3K4me3 in MV4-11 cells = experiment: MV4-11 H3K4me3 Cellular ELISA Assay; assay type: cell-based
Outline: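 MV4-11 cells were treated for 48 h with 12-point 1:3 compound dilutions (from 10 mM stock), then histones were acid-extracted with 0.5M HCl and neutralized. H3K4me3 and total H3 were measured by HRP chemiluminescent ELISA, and inhibition versus DMSO after H3 normalization was curve-fitted for IC50.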

MV4-11 cells = experiment: MV4-11 6-Day Cell Growth CTG (CellTiter-Glo) Assay; assay type: cell-based; details: MV4-11 cell growth CellTiter-Glo, 6 days
Outline: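 MV4-11 AML cells (RPMI 1640, 10% FBS) seeded at 300 cells/well and exposed for 6 days at 37 °C to a 12-point, 1:3 compound series starting at 50 μM final. Viable cells read by CellTiter-Glo luminescence; percent inhibition versus DMSO-only wells fitted to dose-response curves for IC50.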

| SMILES | IC50 [1] [µM] | IC50 ([2]; read-out: LCMS) [µM] | IC50 (H3K4me3 in MV4-11 cells; 48 hours) [µM] | IC50 (MV4-11 cells) [µM] | IC50 (H3K4me3 in MV4-11 cells; Homo sapiens, MV4-11, 48 h) [µM] | IC50 (MV4-11 cells; Homo sapiens, MV4-11, 144 h) [µM] | IC50 ([2]; read-out: MLL1 LCMS) [µM] |
| --- | --- | --- | --- | --- | --- | --- | --- |
| Nc1ncnc2c1ncn2Cc1c(Br)cc(Cl)cc1N1CC[C@](N)(CO)C1 (stereo in doubt) [Example 107] | > 0.1 | > 0.1 | > 3 | < 2 | – | – | – |
| CCc1cc(Cl)cc(N2CC[C@](N)(C(=O)NC3CC3)C2)c1Cn1cnc2c(N)ncnc21 [Example 2, (R)-3-amino-1-(2-((6-amino-9H-purin-9-yl)methyl)-5-chloro-3-ethylphenyl)-N-cyclopropylpyrrolidine-3-carboxamide] | < 0.06 | < 0.05 | – | – | < 1.9 | < 2 | – |
| N#Cc1c(F)ccc(N2CC[C@](N)(C(=O)NC3CC3)C2)c1Cn1cnc2c(N)ncnc21 [Example 4] | > 0.1 | > 0.1 | – | – | 1.9 to 3 | > 3 | – |
| Nc1ncnc2c1ncn2Cc1cc(F)ccc1N1CC[C@](N)(C(=O)NC2CC2)C1 [Example 14] | > 0.1 | > 0.1 | – | – | < 1.9 | 2 to 3 | – |
| Nc1ncnc2c1ncn2Cc1c(Br)cc(Cl)cc1N1CC[C@](N)(CO)C1 [Example 19] | < 0.06 | 0.05 to 0.1 | – | – | < 1.9 | 2 to 3 | – |
| Nc1ncnc2c1ncn2Cc1c(Br)c(F)c2c(c1N1CC[C@](N)(C(=O)NC3CC3)C1)OCC2 [Example 20] | < 0.06 | < 0.05 | – | – | < 1.9 | < 2 | – |
| Nc1ncnc2c1ncn2Cc1c(N2CCC(N)(c3ccccn3)C2)ccc(F)c1C(F)(F)F (stereo not shown) [Example 22] | 0.06 to 0.1 | 0.05 to 0.1 | – | – | < 1.9 | < 2 | – |
| Nc1ncnc2c1ncn2Cc1c(N2CC[C@](N)(CCc3ccccn3)C2)ccc(F)c1C(F)(F)F [Example 28] | > 0.1 | > 0.1 | – | – | > 3 | – | – |
| Nc1ncnc2c1ncn2Cc1c(Br)cc2c(c1N1CCC(N)(C(=O)NC3CC3)C1)OCO2 (stereo not shown) [Example 31] | < 0.06 | < 0.05 | – | – | < 1.9 | < 2 | – |
| Nc1ncnc2c1ncn2Cc1c(Br)cc(Cl)c(Cl)c1N1CC[C@](N)(C(=O)NC2CC2)C1 [Example 43] | < 0.06 | 0.05 to 0.1 | – | – | > 3 | > 3 | – |
| CN(C)Cc1c(F)ccc(N2CC[C@](N)(C(=O)NC3CC3)C2)c1Cn1cnc2c(N)ncnc21 [Example 45, (R)-3-amino-1-(2-((6-amino-9H-purin-9-yl)methyl)-3-((dimethylamino)methyl)-4-fluorophenyl)-N-cyclopropylpyrrolidine-3-carboxamide] | > 0.1 | 0.05 to 0.1 | – | – | < 1.9 | < 2 | – |
| Nc1ncnc2c1ncn2Cc1c(N2CC[C@](N)(C(=O)NC3CC3)C2)ccc(F)c1CN1CC(F)(F)C1 [Example 52] | 0.06 to 0.1 | 0.05 to 0.1 | – | – | < 1.9 | < 2 | – |
| Nc1ncnc2c1ncn2Cc1c(N2CC[C@](N)(C(=O)NC3CC3)C2)ccc(C(F)(F)F)c1CN1CCC1 [Example 62] | < 0.06 | < 0.05 | – | – | < 1.9 | < 2 | – |
| Nc1ncnc2c1ncn2Cc1c(CN2CCOCC2)c(F)cc(Cl)c1N1CC[C@](N)(C(=O)NC2CC2)C1 [Example 75] | > 0.1 | 0.05 to 0.1 | – | – | > 3 | – | – |
| C=Cc1c(Cl)ccc(N2CC[C@](N)(C(=O)NC3CC3)C2)c1Cn1cnc2c(N)ncnc21 [Example 163] | – | – | – | – | < 1.9 | < 2 | < 0.05 |
| Nc1ncnc2c1ncn2Cc1c(Cl)cccc1N1CCC(N)(C(=O)NC2CC2)C1 (stereo not shown) [Example 164] | – | – | – | – | < 1.9 | < 2 | 0.05 to 0.1 |
| CCc1c(Cl)ccc(N2CC[C@](N)(C(=O)NC3CC3)C2)c1Cn1cnc2c(N)ncnc21 [Example 165] | – | – | – | – | < 1.9 | < 2 | 0.05 to 0.1 |
| CCc1cccc(N2CC[C@](N)(C(=O)NC3CCCC3)C2)c1Cn1cnc2c(N)ncnc21 [Example 169] | – | – | – | – | < 1.9 | < 2 | 0.05 to 0.1 |

Results, then the compound that gave them:

| IC50 [1] [µM] | IC50 ([2]; read-out: LCMS) [µM] | IC50 (H3K4me3 in MV4-11 cells; 48 hours) [µM] | IC50 (MV4-11 cells) [µM] | IC50 (H3K4me3 in MV4-11 cells; Homo sapiens, MV4-11, 48 h) [µM] | IC50 (MV4-11 cells; Homo sapiens, MV4-11, 144 h) [µM] | IC50 ([2]; read-out: MLL1 LCMS) [µM] | SMILES |
| --- | --- | --- | --- | --- | --- | --- | --- |
| < 0.06 | < 0.05 | – | – | < 1.9 | 2 to 3 | – | Nc1ncnc2c1ncn2Cc1c(Br)cc(Cl)cc1N1CC[C@](N)(C(=O)NC2CC2)C1 [Example 1, (R)-3-amino-1-(2-((6-amino-9H-purin-9-yl)methyl)-3-bromo-5-chlorophenyl)-N-cyclopropylpyrrolidine-3-carboxamide] |
| > 0.1 | > 0.1 | – | – | > 3 | > 3 | – | Nc1ncnc2c1ncn2Cc1c(-c2ccc3c(c2)CCO3)cc(Cl)cc1N1CC[C@](N)(C(=O)NC2CC2)C1 [Example 3] |
| < 0.06 | < 0.05 | – | – | < 1.9 | < 2 | – | Nc1ncnc2c1ncn2Cc1c(N2CC[C@](N)(C(=O)NC3CC3)C2)ccc2c1OC(F)(F)O2 [Example 15] |
| > 0.1 | > 0.1 | – | – | < 1.9 | < 2 | – | NC(=O)[C@@]1(N)CCN(c2cc(Cl)cc(-c3cccc(C4CCCCC4)c3)c2Cn2cnc3c(N)ncnc32)C1 [Example 16] |
| < 0.06 | < 0.05 | – | – | < 1.9 | < 2 | – | C=CC(=O)N1CCN(C(=O)[C@@]2(N)CCN(c3ccc(F)c(CC)c3Cn3cnc4c(N)ncnc43)C2)CC1 [Example 17] |
| < 0.06 | < 0.05 | – | – | < 1.9 | < 2 | – | Nc1ncnc2c1ncn2Cc1c(Br)cc(Cl)cc1N1CC[C@](N)(c2nc[nH]n2)C1 [Example 18, (R)-9-(2-(3-amino-3-(1H-1,2,4-triazol-3-yl)pyrrolidin-1-yl)-6-bromo-4-chlorobenzyl)-9H-purin-6-amine] |
| < 0.06 | < 0.05 | – | – | < 1.9 | < 2 | – | Nc1ncnc2c1ncn2Cc1c(N2CC[C@](N)(c3ccccn3)C2)ccc(F)c1C(F)(F)F [Example 23] |
| 0.06 to 0.1 | > 0.1 | – | – | > 3 | > 3 | – | COC[C@@]1(N)CCN(c2cc(Cl)cc(Br)c2Cn2cnc3c(N)ncnc32)C1 [Example 32, (R)-9-(2-(3-amino-3-(methoxymethyl)pyrrolidin-1-yl)-6-bromo-4-chlorobenzyl)-9H-purin-6-amine] |
| < 0.06 | 0.05 to 0.1 | – | – | < 1.9 | > 3 | – | Nc1ncnc2c1ncn2Cc1c(Br)c(Cl)c(Cl)c(Cl)c1N1CCC(N)(C(=O)NC2CC2)C1 (stereo not shown) [Example 44] |
| < 0.06 | < 0.05 | – | – | < 1.9 | < 2 | – | Nc1ncnc2c1ncn2Cc1c(N2CC[C@](N)(C(=O)N[C@H]3C[C@@H]3c3ccccc3)C2)ccc(F)c1CN1CCOCC1 [Example 51] |
| > 0.1 | > 0.1 | – | – | > 3 | – | – | CN(C)Cc1c(F)cc(Cl)c(N2CC[C@](N)(C(=O)NC3CC3)C2)c1Cn1cnc2c(N)ncnc21 [Example 72, (R)-3-amino-1-(2-((6-amino-9H-purin-9-yl)methyl)-6-chloro-3-((dimethylamino)methyl)-4-fluorophenyl)-N-cyclopropylpyrrolidine-3-carboxamide] |
| > 0.1 | < 0.05 | – | – | > 3 | – | – | Cn1nnnc1[C@@]1(N)CCN(c2cc(Cl)cc(Br)c2Cn2cnc3c(N)ncnc32)C1 [Example 90, (R)-9-(2-(3-amino-3-(1-methyl-1H-tetrazol-5-yl)pyrrolidin-1-yl)-6-bromo-4-chlorobenzyl)-9H-purin-6-amine] |
| > 0.1 | > 0.1 | – | – | > 3 | – | – | CC1(C)Cc2ccc(N3CC[C@](N)(C(=O)NC4CC4)C3)c(Cn3cnc4c(N)ncnc43)c2O1 [Example 114] |
| < 0.06 | 0.05 to 0.1 | – | – | > 3 | – | – | Nc1ncnc2c1ncn2Cc1c(Br)cc2c(c1N1CCC(N)(C(=O)NC3CC3)C1)CCO2 (stereo not shown) [Example 115] |
| – | – | – | – | < 1.9 | < 2 | 0.05 to 0.1 | COc1ccc(N2CC[C@](N)(C(=O)NC3CC3)C2)c(Cn2cnc3c(N)ncnc32)c1Br [Example 168] |

— patent publication US20220380371A1, “MLL1 INHIBITORS AND ANTI-CANCER AGENTS” (NOVARTIS AG, priority 2019, published 2022)
